Measured values: patent US10149644B2, “Curcumin derivatives for amyloid-β plaque imaging” (The General Hospital Corporation, priority 2008, dated 2018)
Like-named read-outs stand apart in the source and are kept apart here.

Assays:
[1] = biological target: T1, Aβ40 aggregates (Homo sapiens, UniProt P05067); experiment: In vitro Aβ aggregates binding constant measurement; details: Aβ40 aggregates in PBS, fluorescence intensity, nonlinear one-site regression; read-out: Binding constant (Kd) towards Aβ aggregates
T1 construct: Synthetic amyloid-b protein (1-40) was purchased from rPeptide; purchased rPeptide (Bogart, Ga.)
T1 sequence (P05067 672-711 limits assumed): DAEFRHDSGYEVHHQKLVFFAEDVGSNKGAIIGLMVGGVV
Protocol: […] The Kd binding curve was generated by software Prism 3.0 with nonlinear one-site binding regression.
Binding constant (Kd) of CRANAD-2 towards Aβ aggregates was measured by fluorescence intensity (F.I.) with various concentrations of the prob.

[2] = system: senile plaques; experiment: Ex vivo histological correlation; assay type: in vivo, mice; details: 10 mg/kg i.v.
Protocol: 19 month-old mouse was injected CRANAD-2 (10.0 mg/kg), and was sacrified after perfusion with 4% formaldehyde. The brain was taken and embedded in OCT. For histology, the brain was sliced into 25μ slices, and co-stained with thioflavin S as described above. To obtain ex vivo confirmation of the probe binding, mice at different ages were i.v injected with 10 mg/kg of CRANAD-2 probe, perfused and scarified at 1 h after injection.

[3] = biological target: T1, Aβ40 aggregates; details: reported values used for comparison; read-out: Kd towards Aβ aggregates (literature); cited from earlier work
[4] = system: Aβ plaques; experiment: AD tissue staining of APP-PS1 brain sections; details: 25 micron sections, 12-month old APP-PS1 mice
Description: The inventors conducted tissue staining with 25 micron brain sections from 12-month old APP-PS1 mice by all the compounds listed in FIG. 12.

[5] = biological target: T1, Aβ40 aggregates; experiment: Aβ aggregates detection in solution by fluorescence spectrum; assay type: binding; details: 250 nM compound, 250 nM Aβ40 aggregates, PBS
Protocol: They then incubated 250 nM of the compounds with 250 nM of Aβ40 aggregates (calculation based on monomer) in PBS for one minute, and then measured the fluorescence spectra of the solutions.

[6] = cited from earlier work
[7] = Fluorescence emission properties of the probes; assay type: physicochemical; details: probe alone, methanol (FIG. 2)
Protocol: Reagents used for synthesis were purchased from Aldrich without further purification. Column chromatography was performed on silica gel (SiliCycle Inc., 60 Å, […]) slurry packed into glass columns. Thioflavin S was purchased from Aldrich. Synthetic amyloid-b protein (1-40) was purchased from rPeptide (Bogart, Ga., 30622) and aggregates for in vitro studies were generated followed the reported procedure. BSA was purchased from Sigma, and human serum was obtained from Invitrogen (type AB). ^1H and ^13C NMR spectra were recorded at 400 MHz and 100 MHz respectively, and are reported in ppm downfield from tetramethylsilane. Fluorescence studies were carried out with F-4500 Fluorescense Spectrophotometer. Fluorescence quantum yields were determined using aqueous solution of Cy5.5-maleimide as a standard (y=0.23). High resolution mass spectra were obtained at the Harvard University, Department of Chemistry Instrumentation Facility. Transgenic Tg2576 mice {45} and littermates were purchased from Taconic Farm, Balb/c mice for BBB penetrating test were obtained from Jackson Laboratory, and the experiment procedure was approved by Massachusetts General Hospital. In vivo imaging was recorded on Kodak Imaging Station 2000MM.
Furthermore, by comparing the fluorescence intensity in methanol, the quantum yield of CRANAD-2 was significant higher than that of curcumin (FIG. 2). […] Additionally, these modifications produced a large stokes shift and improved quantum yield of CRANAD-2. The synthesized compound produced the longest emission and the largest stokes shift among the existing probes for senile plaque detection {3}.

COc1cc(C=CC2=CC(C=Cc3ccc(O)c(OC)c3)=[O+][B-](F)(F)O2)ccc1O [CRANAD-1, 1,7-Bis-(4-hydroxy-3-methoxyphenyl)-hepta-1,6-diene-2′,2′-difluoro-1′,3′-dioxaboryl-3,5-dione]
Kd [1]: 1 nM
Labelling of senile plaques ex vivo after i.v. injection ([2]; 11-month old transgenic and wild-type mice, thioflavin S staining): could not find obvious senile plaques
Labelling of senile plaques ex vivo after i.v. injection ([2]; 19-month old transgenic mice): can penetrate BBB and label senile plaques in vivo

N#CC(C#N)=Cc1ccc(-c2ccc(-c3ccc(O)cc3)s2)s1 [NIAD-4]
Kd [3]: 10 nM

[11CH3]Nc1ccc(-c2nc3ccc(O)cc3s2)cc1 [PiB]
Staining of plaques in brain sections [4]: stained the plaques brightly

Cc1ccc2c(c1)sc(-c1ccc(N(C)C)cc1)[n+]2C.[Cl-] [Thioflavin T]
FI amplification with Aβ40 aggregates [5]: 72 fold
Fluorescence intensity change with Aβ40 aggregates ([5]; one minute): intensity increases
Staining of plaques in brain sections [4]: stained the plaques brightly

COc1cc(C=CC(=O)CC(=O)C=Cc2ccc(O)c(OC)c2)ccc1O [curcumin, 1,7-bis(4-hydroxy-3-methoxyphenyl)-1,6-heptadiene-3,5-dione]
Fluorescence intensity change with Aβ40 aggregates ([5]; one minute): intensity increases
Wavelength shift with Aβ40 aggregates ([5]; one minute): wavelength blue-shifts
log P (literature) [6]: < 2
Staining of plaques in brain sections [4]: stained the plaques brightly
Stokes shift [7]: 50 nm
λmax(em) [7]: 560 nm
λmax(ex) [7]: 510 nm
